Experimental data as given in publication PMC4896453 (PLoS ONE, 2016).

Experiments:
[1] = biological target: T1, human Mu receptor (Mu-RLuc/β-arrestin 2-RGFP) (Homo sapiens, UniProt P35372); assay: BRET Mu-RLuc/β-arrestin 2-RGFP interaction, SH-SY5Y cells; format: cell-based
T1 construct: expressed in transfected cells; host or cells: SH-SY5Y (retroviral expression; whole cells)

[2] = biological target: T2, Mu receptor (CHOhMu) (Homo sapiens, UniProt P35372); assay: GTPγ[35S] binding, CHOhMu membranes; format: biochemical
T2 construct: expressed in transfected cells; host or cells: CHO (Chinese Hamster Ovary)
T2 sequence (P35372 whole entry): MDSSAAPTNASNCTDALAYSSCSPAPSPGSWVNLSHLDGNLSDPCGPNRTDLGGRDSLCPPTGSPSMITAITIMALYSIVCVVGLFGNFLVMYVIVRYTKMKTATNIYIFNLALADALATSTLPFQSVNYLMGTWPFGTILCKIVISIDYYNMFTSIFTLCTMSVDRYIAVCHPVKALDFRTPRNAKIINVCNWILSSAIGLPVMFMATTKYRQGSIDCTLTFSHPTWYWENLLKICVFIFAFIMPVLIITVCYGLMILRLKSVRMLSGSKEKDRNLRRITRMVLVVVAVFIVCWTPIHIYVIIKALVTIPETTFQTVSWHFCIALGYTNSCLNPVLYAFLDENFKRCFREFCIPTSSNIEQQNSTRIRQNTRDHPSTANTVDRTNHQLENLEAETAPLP

[3] = biological target: T3, human Mu receptor (Mu-RLuc/Gβ1-RGFP) (Homo sapiens, UniProt P35372); assay: BRET Mu-RLuc/Gβ1-RGFP interaction, SH-SY5Y membranes; format: biochemical
T3 construct: expressed in transfected cells; host or cells: SH-SY5Y (retroviral expression; membranes used)
T3 sequence (P35372 whole entry, looked up): as the sequence (P35372 whole entry) above

[4] = biological target: T4, human Mu receptor (Homo sapiens, UniProt P35372); assay: Calcium mobilisation, CHO cells with Mu and Gαqi5; format: cell-based
T4 construct: expressed in transfected cells; host or cells: CHO
T4 sequence (P35372 whole entry): as above

[5] = biological target: T5, human NOP receptor (NOP-RLuc/β-arrestin 2-RGFP) (Homo sapiens, UniProt P41146); assay: BRET NOP-RLuc/β-arrestin 2-RGFP interaction, HEK-293 cells; format: cell-based
T5 construct: expressed in transfected cells; host or cells: HEK-293 (retroviral expression; whole cells)
T5 sequence (P41146+P27652 fused): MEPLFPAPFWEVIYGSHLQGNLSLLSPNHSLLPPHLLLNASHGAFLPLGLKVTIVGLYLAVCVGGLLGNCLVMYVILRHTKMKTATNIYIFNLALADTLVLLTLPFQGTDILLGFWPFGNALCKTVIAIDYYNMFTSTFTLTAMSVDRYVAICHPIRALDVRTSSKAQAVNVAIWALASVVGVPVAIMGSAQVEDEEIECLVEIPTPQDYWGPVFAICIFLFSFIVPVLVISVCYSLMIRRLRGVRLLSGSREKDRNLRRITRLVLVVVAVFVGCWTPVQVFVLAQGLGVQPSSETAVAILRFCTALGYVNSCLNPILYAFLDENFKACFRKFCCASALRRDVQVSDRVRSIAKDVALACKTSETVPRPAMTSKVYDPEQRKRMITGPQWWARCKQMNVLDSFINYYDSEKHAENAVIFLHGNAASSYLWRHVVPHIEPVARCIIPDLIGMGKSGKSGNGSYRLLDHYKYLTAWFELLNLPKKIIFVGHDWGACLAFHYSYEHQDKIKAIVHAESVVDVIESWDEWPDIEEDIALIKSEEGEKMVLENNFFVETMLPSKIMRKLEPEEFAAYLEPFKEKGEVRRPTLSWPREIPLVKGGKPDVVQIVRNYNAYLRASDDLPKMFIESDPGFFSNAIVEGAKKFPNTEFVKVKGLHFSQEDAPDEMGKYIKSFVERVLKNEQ
T5 sequence (P32121 whole entry partner): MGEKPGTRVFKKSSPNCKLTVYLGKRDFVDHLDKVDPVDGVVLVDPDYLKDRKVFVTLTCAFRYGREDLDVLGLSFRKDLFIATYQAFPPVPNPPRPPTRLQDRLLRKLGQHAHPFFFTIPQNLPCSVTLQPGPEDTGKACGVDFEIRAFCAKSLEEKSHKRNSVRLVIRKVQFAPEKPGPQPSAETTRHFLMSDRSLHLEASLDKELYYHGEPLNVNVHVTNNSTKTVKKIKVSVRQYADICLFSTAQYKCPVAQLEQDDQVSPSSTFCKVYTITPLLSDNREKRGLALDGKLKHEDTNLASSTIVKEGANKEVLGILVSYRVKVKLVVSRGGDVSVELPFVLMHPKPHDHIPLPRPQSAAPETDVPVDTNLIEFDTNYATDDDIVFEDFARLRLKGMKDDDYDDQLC

[6] = biological target: T6, NOP receptor (CHOhNOP) (Homo sapiens, UniProt P41146); assay: Displacement binding of [3H]-UFP-101, CHOhNOP membranes
T6 construct: expressed in transfected cells; host or cells: CHO (Chinese Hamster Ovary)
T6 sequence (P41146 whole entry): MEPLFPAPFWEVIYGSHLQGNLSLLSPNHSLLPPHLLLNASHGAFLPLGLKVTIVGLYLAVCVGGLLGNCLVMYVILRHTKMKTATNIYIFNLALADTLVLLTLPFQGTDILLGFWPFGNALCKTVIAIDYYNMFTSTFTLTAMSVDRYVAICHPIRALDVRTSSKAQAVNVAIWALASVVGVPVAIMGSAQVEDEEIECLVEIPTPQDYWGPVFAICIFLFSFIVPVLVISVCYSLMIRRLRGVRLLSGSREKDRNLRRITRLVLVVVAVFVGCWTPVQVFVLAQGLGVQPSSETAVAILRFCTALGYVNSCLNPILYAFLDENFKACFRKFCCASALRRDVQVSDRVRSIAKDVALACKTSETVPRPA
Protocol: (§1) In the radioligand displacement binding assays, homogenization/wash buffer consisting of 50 mM Tris-HCl pH to 7.4 with KOH, for CHOhMu, CHOhDelta and CHOhKappa or additional 5 mM MgSO4 for CHOhNOP was used. Homogenisation buffer (50 mM Tris and 0.2 mM EGTA pH 7.4 with NaOH) was used in GTPγ[^35S] assays. Membranes were centrifuged at 20374 g for 10 min at 4°C. This process was repeated at least three times. The resulting pellet was resuspended in an appropriate amount of the necessary buffer and the protein concentration was determined by Lowry assay.
(§2) Samples were incubated for 1 hr at room temperature and reactions were terminated by vacuum filtration, onto PEI-soaked Whatman GF/B filters, using a Brandel harvester.

[7] = biological target: T2, Mu receptor (CHOhMu); assay: Displacement binding of [3H]-DPN, CHOhMu membranes; conditions: SEM
Protocol: as §1, §2

[8] = biological target: T7, human NOP receptor (Homo sapiens, UniProt P41146); assay: Calcium mobilisation, CHO cells with NOP and Gαqi5; format: cell-based
T7 construct: expressed in transfected cells; host or cells: CHO
T7 sequence (P41146 whole entry): as above

[9] = biological target: T8, Kappa receptor (CHOhKappa) (Homo sapiens, UniProt P41145); assay: GTPγ[35S] binding, CHOhKappa membranes; format: biochemical
T8 construct: expressed in transfected cells; host or cells: CHO (Chinese Hamster Ovary)
T8 sequence (P41145 whole entry): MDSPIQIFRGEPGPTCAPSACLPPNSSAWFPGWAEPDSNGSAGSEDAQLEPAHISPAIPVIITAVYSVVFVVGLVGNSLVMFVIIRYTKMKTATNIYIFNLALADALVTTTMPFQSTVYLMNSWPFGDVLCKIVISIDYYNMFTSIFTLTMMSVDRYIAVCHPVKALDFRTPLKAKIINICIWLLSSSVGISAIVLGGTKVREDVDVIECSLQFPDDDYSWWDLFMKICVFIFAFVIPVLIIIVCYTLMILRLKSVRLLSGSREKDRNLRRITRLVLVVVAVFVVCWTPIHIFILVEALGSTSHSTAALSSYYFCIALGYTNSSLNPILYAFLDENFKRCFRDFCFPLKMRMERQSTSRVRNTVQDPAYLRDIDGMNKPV

[10] = biological target: T9, Delta receptor (CHOhDelta) (Homo sapiens, UniProt P41143); assay: GTPγ[35S] binding, CHOhDelta membranes; format: biochemical
T9 construct: expressed in transfected cells; host or cells: CHO (Chinese Hamster Ovary)
T9 sequence (P41143 whole entry): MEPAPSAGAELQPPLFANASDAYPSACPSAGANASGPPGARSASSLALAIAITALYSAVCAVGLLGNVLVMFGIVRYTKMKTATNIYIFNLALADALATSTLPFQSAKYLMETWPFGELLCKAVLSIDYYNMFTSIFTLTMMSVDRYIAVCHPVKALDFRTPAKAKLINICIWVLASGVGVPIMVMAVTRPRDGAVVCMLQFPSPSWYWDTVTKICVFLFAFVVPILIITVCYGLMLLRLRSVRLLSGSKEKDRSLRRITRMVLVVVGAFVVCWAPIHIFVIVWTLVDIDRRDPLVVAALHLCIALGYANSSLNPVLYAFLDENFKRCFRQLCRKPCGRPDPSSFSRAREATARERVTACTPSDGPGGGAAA

[11] = biological target: T9, Delta receptor (CHOhDelta); assay: Displacement binding of [3H]-DPN, CHOhDelta membranes; conditions: SEM
Protocol: as §1, §2

[12] = biological target: human NOP receptor (NOP-RLuc/Gβ1-RGFP) (Homo sapiens, UniProt P41146); assay: biochemical; format: biochemical
Chain of human NOP receptor (NOP-RLuc/Gβ1-RGFP) (P41146 whole entry, looked up): as the sequence (P41146 whole entry) above

[13] = biological target: T6, NOP receptor (CHOhNOP); assay: GTPγ[35S] binding, CHOhNOP membranes; format: biochemical
[14] = test system: rats; assay: Rota-rod test after intrathecal infusion; format: in vivo, rat; conditions: same range of doses (0.1–1 nmol), data not shown
Protocol: For all the experiments described below, male Sprague-Dawley rats (Harlan, Varese, Italy), weighing approximately 280-300g at the beginning of the experimental procedure, were used. Animals were housed in CeSAL (Centro Stabulazione Animali da Laboratorio, University of Florence) and used at least one week after their arrival. One rat was housed per cage (size 26x41 cm); animals were fed with standard laboratory diet and tap water ad libitum, and kept at 23±1°C with a 12 h light/dark cycle, light at 7 a.m. […] All animals were monitored daily using a scoring system (based on: Appearance, Food and Water Intake, Clinical Signs, Natural Behaviour and Provoked Behaviour. Maximum score is 20 and animals reaching 10 are euthanized. In the experiments reported here no animals reached this score and none died before the end of the experiment) and at the end of the experiment were euthanized by CO2 overdose. […]
Rota-rod apparatus (Ugo Basile, Varese, Italy) consisted of a base platform and a rotating rod with a diameter of 6 cm and a non-slippery surface. […] The integrity of motor coordination was assessed on the basis of the number of falls from the rod in 60s measured 15, 30, 45, 60, 90, 120 and 180 min after treatments.

[15] = biological target: T8, Kappa receptor (CHOhKappa); assay: Displacement binding of [3H]-DPN, CHOhKappa membranes; conditions: SEM
Protocol: as §1, §2

T1 sequence (P35372+P27652 fused): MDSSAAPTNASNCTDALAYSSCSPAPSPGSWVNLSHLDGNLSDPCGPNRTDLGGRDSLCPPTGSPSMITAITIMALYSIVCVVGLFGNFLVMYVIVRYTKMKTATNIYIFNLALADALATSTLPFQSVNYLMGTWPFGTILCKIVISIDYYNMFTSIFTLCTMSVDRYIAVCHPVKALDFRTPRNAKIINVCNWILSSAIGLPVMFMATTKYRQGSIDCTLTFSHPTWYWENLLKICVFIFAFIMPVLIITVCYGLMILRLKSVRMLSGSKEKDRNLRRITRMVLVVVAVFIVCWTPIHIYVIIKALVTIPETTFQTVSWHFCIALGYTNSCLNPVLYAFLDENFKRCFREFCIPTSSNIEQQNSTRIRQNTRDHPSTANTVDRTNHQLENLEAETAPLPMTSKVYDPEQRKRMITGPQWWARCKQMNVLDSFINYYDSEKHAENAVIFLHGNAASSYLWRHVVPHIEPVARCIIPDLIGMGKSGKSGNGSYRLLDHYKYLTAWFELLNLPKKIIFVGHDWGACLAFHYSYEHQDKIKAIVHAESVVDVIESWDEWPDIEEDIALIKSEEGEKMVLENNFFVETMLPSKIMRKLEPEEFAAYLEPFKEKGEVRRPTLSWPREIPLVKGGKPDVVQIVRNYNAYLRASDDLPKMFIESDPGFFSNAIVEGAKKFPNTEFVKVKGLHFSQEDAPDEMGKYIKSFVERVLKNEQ
T1 sequence (P32121 whole entry partner): as the sequence (P32121 whole entry partner) above

**Q.** Which results are given for CC(C)C[C@H](NC(=O)[C@H](CCCCN)NC(=O)[C@H](CCCNC(=N)N)NC(=O)[C@H](C)NC(=O)[C@H](CO)NC(=O)[C@H](CCCCN)NC(=O)[C@H](CCCNC(=N)N)NC(=O)[C@H](C)NC(=O)CNC(=O)[C@@H](NC(=O)[C@H](Cc1ccccc1)NC(=O)CNC(=O)CNC(=O)[C@@H](N)Cc1ccccc1)[C@@H](C)O)C(=O)N[C@@H](C)C(=O)N[C@@H](CC(N)=O)C(=O)N[C@@H](CCC(N)=O)C(=O)N[C@@H](CSC1CC(=O)N(CCCC(=O)NCCCC[C@H](NC(=O)[C@H](CO)NC(=O)[C@@H]2CCCN2C(=O)[C@H](Cc2ccc(O)cc2)NC(=O)CNC(=O)[C@H](Cc2ccccc2)NC(=O)[C@@H](C)NC(=O)[C@@H](N)Cc2ccc(O)cc2)C(N)=O)C1=O)C(N)=O (stereo partly drawn) [DeNo]?
**A.** EC50 [1]: 437 nM; EC50 [2]: 17 nM; EC50 [3]: 9.77 nM; EC50 [4]: 67.6 nM; Emax ([4]; calcium mobilisation, % over basal fluorescence, CHO cells with human Mu and Gαqi5, at least 3 experiments in duplicate, SEM): 209 ± 15%; EC50 [5]: 6.46 nM; Ki ([6]; SEM): 0.0603 nM; NOP selectivity over Mu in binding ([6]; from pKi values): ~ 5 fold; Ki [7]: 0.282 nM; EC50 [8]: 0.204 nM; Emax ([8]; calcium mobilisation, % over basal fluorescence, CHO cells with human NOP and Gαqi5, at least 3 experiments in duplicate, SEM): 244 ± 6%; EC50 [9]: 1200 nM; EC50 [10]: 166 nM; Ki [11]: 7.59 nM; EC50 [12]: 0.955 nM; EC50 [13]: 0.316 nM; animal performance in the rotarod test [14]: impaired animal performance in the rotarod test; Ki [15]: 45.7 nM
